According to BigSolDB 2.1:

O=C1OC(=O)c2cc(Cl)ccc21
solubility (mole fraction)
Details	283.15 K	288.15 K	293.15 K	298.15 K	303.15 K	308.15 K	313.15 K	318.15 K	323.15 K	328.15 K
in acetonitrile	0.102	0.121	0.143	0.167	0.194	0.221	0.249	0.277	0.304	0.331
in cyclohexane	0.000482	0.000684	0.000895	0.00109	0.00139	0.00161	0.00203	0.00246	0.00315	0.00399
in methanol	0.0848	0.0944	0.118	0.136	0.167	0.196	0.228	0.266	0.309	0.356
in methyl acetate	0.134	0.163	0.19	0.216	0.241	0.269	0.296	0.33	0.362	0.407
in tert-amyl alcohol	0.00738	0.00942	0.0129	0.0166	0.0219	0.0274	0.0376	0.0489	0.065	0.0823
in tetrachloromethane	0.00888	0.0103	0.0128	0.0142	0.0169	0.0191	0.0212	0.0233	0.0254	0.0274

O=C1OC(=O)c2c(Cl)cccc21
solubility (mole fraction)
Details	283.15 K	288.15 K	293.15 K	298.15 K	303.15 K	308.15 K	313.15 K	318.15 K	323.15 K	328.15 K
in acetonitrile	0.0676	0.0793	0.092	0.106	0.123	0.142	0.165	0.193	0.225	0.263
in cyclohexane	0.00042	0.000507	0.000554	0.000764	0.000909	0.00108	0.00136	0.00176	0.00222	0.00277
in methanol	0.0637	0.0698	0.0766	0.09	0.0968	0.104	0.116	0.126	0.144	0.161
in methyl acetate	0.0882	0.0987	0.112	0.123	0.145	0.157	0.176	0.198	0.223	0.252
in tert-amyl alcohol	0.00423	0.00548	0.00677	0.00875	0.0113	0.0125	0.0146	0.0184	0.0228	0.0288
in tetrachloromethane	0.00307	0.004	0.00497	0.00605	0.00729	0.00873	0.0104	0.0125	0.0146	0.0177
